The target of one data set is COX-1 (Homo sapiens, UniProt P23219). The data set can be described thus: COX-1 enzyme activity in human whole blood (A23187 stimulated, thromboxane B2 EIA). To be noted: test compound at 100 μM. Details: Human blood (≈50 mL) from male or female donors who had not received any aspirin or NSAIDs for 14 days; endogenous in cells; host or cells: human whole blood from donors. In kind it is cell-based.

For another data set, the target named is T1, COX-2 (Homo sapiens, UniProt P35354).
T1 sequence (P35354 18-604): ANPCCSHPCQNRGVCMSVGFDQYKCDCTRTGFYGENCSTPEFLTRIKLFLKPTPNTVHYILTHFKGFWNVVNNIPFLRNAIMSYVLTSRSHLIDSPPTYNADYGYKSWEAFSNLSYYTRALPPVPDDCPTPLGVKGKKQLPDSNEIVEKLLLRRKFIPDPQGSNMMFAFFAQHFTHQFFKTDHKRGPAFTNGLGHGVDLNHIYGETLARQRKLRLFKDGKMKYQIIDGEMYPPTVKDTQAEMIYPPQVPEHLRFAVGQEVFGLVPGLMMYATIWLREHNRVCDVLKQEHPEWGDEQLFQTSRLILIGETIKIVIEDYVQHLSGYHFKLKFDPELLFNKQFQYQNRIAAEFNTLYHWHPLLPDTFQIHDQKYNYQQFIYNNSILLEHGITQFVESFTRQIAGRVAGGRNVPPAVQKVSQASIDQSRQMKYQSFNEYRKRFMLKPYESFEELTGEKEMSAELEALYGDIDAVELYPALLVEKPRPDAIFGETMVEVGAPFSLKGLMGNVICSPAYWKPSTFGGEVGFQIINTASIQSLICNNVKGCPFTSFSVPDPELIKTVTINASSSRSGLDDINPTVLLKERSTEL
Kind of data set: COX-2 enzyme activity in human whole blood (LPS induced, thromboxane B2 EIA). In kind it is cell-based. To be noted: test compound at 10 μM. The arrangement: Human blood (≈50 mL) from male or female donors who had not received any aspirin or NSAIDs for 14 days; endogenous in cells; host or cells: human whole blood from donors, LPS-induced.

The term melting point denotes the temperature, or range, at which the solid turns liquid. The inhibition is the drop in the measured response relative to a control, in per cent.

Sequence of COX-1 (P23219 24-599): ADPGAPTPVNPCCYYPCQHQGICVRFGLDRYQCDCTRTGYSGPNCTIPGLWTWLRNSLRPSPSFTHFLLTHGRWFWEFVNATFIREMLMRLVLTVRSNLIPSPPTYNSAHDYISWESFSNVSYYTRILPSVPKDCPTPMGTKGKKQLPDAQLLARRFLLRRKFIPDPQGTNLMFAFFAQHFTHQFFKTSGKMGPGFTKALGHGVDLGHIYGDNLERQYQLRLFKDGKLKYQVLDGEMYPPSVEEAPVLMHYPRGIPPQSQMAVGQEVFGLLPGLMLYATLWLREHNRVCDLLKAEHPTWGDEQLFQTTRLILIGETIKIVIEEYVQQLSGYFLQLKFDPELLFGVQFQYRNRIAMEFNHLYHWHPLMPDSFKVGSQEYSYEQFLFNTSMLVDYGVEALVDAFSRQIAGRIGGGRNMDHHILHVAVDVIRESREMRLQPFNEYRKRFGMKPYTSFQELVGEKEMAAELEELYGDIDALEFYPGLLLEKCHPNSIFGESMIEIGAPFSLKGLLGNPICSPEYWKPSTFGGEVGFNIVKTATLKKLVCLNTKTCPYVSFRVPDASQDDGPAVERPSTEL

For `CS(=O)(=O)c1ccc(-c2cc3c(cc2Cc2cc(F)cc(F)c2)OC(C(N)=O)CO3)cc1` (stereo not drawn) [Example 21, 7-((3,5-Difluorophenyl)methyl)-6-(4-(methylsulfonyl)phenyl)-2H, 3H-benzo(e)1,4-dioxin-2-carboxamide], the melting point lay within 238 to 241 °C. In addition, on COX-1, 100 µM produced 50% inhibition. The same compound showed an inhibition at 10 µM on COX-2 of 30%.
The corresponding values for `CS(=O)(=O)c1ccc(-c2cc3c(cc2C(=O)c2cc(F)cc(F)c2)OCCO3)cc1` [Example 22, 3,5-Difluorophenyl 7-(4-(methylsulfonyl)phenyl)(2H, 3H-benzo(e)1,4-dioxin-6-yl) ketone] are 191 to 193 °C, 90% and 55%.
The corresponding values for `CS(=O)(=O)c1ccc(-c2ccccc2C=C2CCCCC2)cc1` [Example 24e, 1-(2-(Cyclohexylidenemethyl)phenyl)-4-(methylsulfonyl)benzene] are 83 °C, 55% and 90%.
The corresponding values for `CS(=O)(=O)c1ccc(-c2ccccc2C(=O)c2cccc(F)c2)cc1` [Example 25c, 3-Fluorophenyl 2-(4-(methylsulfonyl)phenyl)phenyl ketone] are 105 to 106 °C, 40% and 40%.
Compound `CS(=O)(=O)c1ccc(-c2ccccc2Cc2cccc(F)c2)cc1` [Example 26, 1-(2-((3-Fluorophenyl)methyl)phenyl)-4-(methylsulfonyl)benzene] came in with a melting point of 97 to 98 °C. On COX-1, this compound came in with an inhibition at 100 µM of 25%. The same compound registered an inhibition at 10 µM against COX-2 of 10%.

These data come from patent US6825185B2, “Substituted aryl compounds as novel cyclooxygenase-2 selective inhibitors, compositions and methods of use” (NitroMed, Inc., priority 2000, dated 2004).
